Consider 3 compounds from US7063861B2, “Bioavailable composition of natural and synthetic HCA” (Sabinsa Corporation, priority 2000, dated 2006).

The structures appear in SMILES notation.

The conditions of data set [1]: oral, before the feeding period; versus untreated controls; cited from earlier work.
Data set [2] concerns ATP citrate lyase enzyme. Conditions: in vitro, purified enzyme; cited from earlier work.
Data set [3] concerns azoxymethane (AOM)-induced formation of aberrant colonic crypts (AC). Description: Azoxymethane (AOM)-induced formation of aberrant colonic crypts in CF-1 mice. The data set is classed as in vivo. Conditions: 10 week oral, 0.05% GAR, 1% HCA.
For data set [4] the following is noted: rats fed (−) HCA; cited from earlier work.
Data set [5] is described as follows: Body weight and accumulation of fat in abdomen in CF-1 mice, 10 week oral administration. The note with it: 0.05% GAR, 1% HCA; for Body weight: AOM. Format: in vivo.
Data set [6] is described as follows: Oral administration of garcinol, HCA and combination: body weight, food and fluid consumption in SKH-1 mice. The data set is classed as in vivo. Conditions: 0.05% GAR, 1% HCA, Mean ± SE.
Data set [7] relates to TPA-induced ear edema. Description: TPA-induced ear edema in female CF-1 mice. The data set is classed as in vivo. The note with it: 5 hours; for Weight per punch: mean ± SE. As for the experimental part:
The role of garcinol as a chemopreventive agent has been confirmed in an experiment in which CF-1 mice were treated topically with the inflammation and tumor promoting agent, TPA. [table]

The target of data set [8] is T1, ATP citrate lyase (Homo sapiens, UniProt P53396).
T1 construct: an in vitro study done on hepatic cells; endogenous in cells; host or cells: hepatic cells (species and cell type not specified)
T1 sequence (P53396 1-1101): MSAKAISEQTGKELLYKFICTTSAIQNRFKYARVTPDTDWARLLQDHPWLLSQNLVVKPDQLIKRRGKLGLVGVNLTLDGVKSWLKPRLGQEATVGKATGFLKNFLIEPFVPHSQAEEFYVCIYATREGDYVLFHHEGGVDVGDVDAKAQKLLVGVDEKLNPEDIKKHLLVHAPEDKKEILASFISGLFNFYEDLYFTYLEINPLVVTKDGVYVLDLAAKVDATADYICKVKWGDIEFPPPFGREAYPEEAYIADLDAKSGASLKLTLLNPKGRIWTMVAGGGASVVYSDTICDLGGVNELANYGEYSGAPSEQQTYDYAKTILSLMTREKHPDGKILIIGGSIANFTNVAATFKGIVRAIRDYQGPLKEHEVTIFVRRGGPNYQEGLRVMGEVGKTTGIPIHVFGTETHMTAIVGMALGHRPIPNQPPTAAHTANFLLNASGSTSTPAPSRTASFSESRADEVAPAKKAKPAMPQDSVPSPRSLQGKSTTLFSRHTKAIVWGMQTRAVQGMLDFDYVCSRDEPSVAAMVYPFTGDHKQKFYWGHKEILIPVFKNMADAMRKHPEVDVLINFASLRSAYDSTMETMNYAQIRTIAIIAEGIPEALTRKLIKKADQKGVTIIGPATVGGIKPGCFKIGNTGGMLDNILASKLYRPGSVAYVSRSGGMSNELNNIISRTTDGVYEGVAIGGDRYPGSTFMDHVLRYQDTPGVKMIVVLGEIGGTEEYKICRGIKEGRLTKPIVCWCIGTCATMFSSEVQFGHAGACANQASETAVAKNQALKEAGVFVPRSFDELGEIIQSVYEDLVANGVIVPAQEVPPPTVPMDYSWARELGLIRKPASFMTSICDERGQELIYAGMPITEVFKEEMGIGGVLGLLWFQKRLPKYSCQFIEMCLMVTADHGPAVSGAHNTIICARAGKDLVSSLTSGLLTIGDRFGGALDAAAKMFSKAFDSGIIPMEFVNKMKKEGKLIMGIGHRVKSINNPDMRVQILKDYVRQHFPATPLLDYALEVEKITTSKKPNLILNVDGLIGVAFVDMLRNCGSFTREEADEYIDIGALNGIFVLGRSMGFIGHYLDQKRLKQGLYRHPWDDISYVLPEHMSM
Conditions: cited from earlier work.

Data set [9] has as its target T1, ATP citrate lyase. Description: Inhibition of ATP citrate lyase in hepatic cells in vitro. The data set is classed as cell-based. Conditions: extracellular versus cytosol. The source says: In their U.S. Patent, the Inventors addressed an important issue regarding the bioavailability of the HCA compounds. The U.S. Pat. No. 5,783,603 patent described a manufacturing process leading to a unique structure for a potassium salt of HCA, which facilitated its transport across biological membranes, effectively delivering more HCA into the cytosol for the competitive inhibition of ATP citrate lyase. […] Therefore, a 10-fold excess amount of potassium HCA is needed outside of the target cell in order to achieve a concentration of 1/10 that amount in the cytosol. This finding of relatively poor bioavailability of HCA, was confirmed in pre-clinical experiments (14), and points out the need to further improve the bioavailability and efficacy of HCA.

The mark [10] stands for this setting: TPA 1 nmol + GAR 0.1 umol topical on ear.
Setting [11] is: TPA 1 nmol + GAR 0.5 umol topical on ear.

`O=C(O)CC(O)(C(=O)O)C(O)C(=O)O` (stereo not drawn) [HCA, 1,2-dihydroxypropane-1,2,3-tricarboxylic acid]: in data set [1], the food intake result is listed as “consumed less food”; the “hepatic synthesis of fatty acids and cholesterol” value was “significantly diminished”. Moreover, in data set [2], the “inhibition of ATP citrate lyase enzyme” value was “potent linear competitive inhibitor”. In data set [3], the AC per colon came out at 7.9 and the “AC per colon, percentage in parentheses (reduction versus control)” value came out at 30.7%. Besides, the “weight loss and cumulative food intake” value in [4] is “weight loss with no decrease in cumulative food intake”. Further, in data set [5], the parametrial fat was determined as 1.24 ± 0.06 gm, the retroperitoneal fat is recorded as 0.79 ± 0.04 gm and the Body weight was determined as 37.9 ± 0.66 gm. The Body weight in [6] (5 weeks) worked out at 32.5 ± 0.42 gm. Moreover, in data set [6] (7 weeks), the Body weight came to 34.5 ± 0.59 gm. Further, the Body weight in [6] (10 weeks) is 36.8 ± 0.33 gm.

For the compound `C=C(C)[C@@H](CC=C(C)C)C[C@@]12C[C@@H](CC=C(C)C)C(C)(C)[C@@](CC=C(C)C)(C(=O)C(C(=O)c3ccc(O)c(O)c3)=C1O)C2=O` [GAR, garcinol], the “Percent Inhibition of ear edema” value is 38.5% in [7] (setting [10]) and 77.5% in data set [7] (setting [11]). The results for the Weight per punch in data set [7] (setting [10]) and in data set [7] (setting [11]) were 12.4 ± 0.81 mg and 9.25 ± 0.66 mg, respectively. For the same compound, the AC per colon in [3] is 7.8. Moreover, in data set [3], the “AC per colon, percentage in parentheses (reduction versus control)” value was determined as 31.6%. Also, the parametrial fat in [5] is 1.21 ± 0.18 gm. In [5], this compound gave a retroperitoneal fat of 0.85 ± 0.01 gm. Also, the Body weight is 37.3 ± 1.07 gm in data set [5], 32.8 ± 0.37 gm in data set [6] (5 weeks), 33.9 ± 0.14 gm in [6] (7 weeks) and 36.4 ± 0.55 gm in data set [6] (10 weeks).

For `O=C([O-])CC(O)(C(=O)[O-])C(O)C(=O)[O-].[K+].[K+].[K+]` (stereo not drawn) [potassium HCA], the “concentration needed in the cytosol to effectively inhibit ATP citrate lyase” value in [8] (cytosol) is on record as 0.5 mM. For the same compound, the “extracellular concentration that could inhibit ATP citrate lyase” value in data set [8] (hepatic cells, extracellular) is reported as 5 mM. The “excess needed outside the target cell over cytosol concentration” value in data set [9] is reported as 10 fold.
